Reference: patent US10828315B2 (Madrigal Pharmaceuticals, Inc., priority 2013, dated 2020)
“And” between values parts separate entries of the source, which are not always exact repeats. Identical values can stand only once. Like-named read-outs stand apart in the source and are kept apart here.

Legend:
Human H3122 NSCLC cells = test: Cell viability assay (CellTiter-Glo) in H3122 cells (Example 4); type: cell-based; settings: NCI-H3122
Method: Human H3122 NSCLC cells were obtained and grown in RPMI in the presence of fetal bovine serum (10%), 2 mM L-glutamine and antibiotics (100 IU/ml penicillin and 100 μg/ml streptomycin, Sigma Aldrich.) Cells were maintained at 37° C., 5% CO2 atmosphere.
Cell viability was measured using the CellTiter-Glo® assay (Promega). In brief, cells were plated in 96-well plates in triplicate at optimal seeding density (determined empirically) and incubated at 37° C., 5% CO2 atmosphere for 24 hr prior to the addition of drug or vehicle (0.3% DMSO) to the culture medium. At the end of the assay, CellTiter-Glo was added to the wells per manufacturer's recommendation, shaken for two minutes and incubated for 10 minutes at room temperature. Luminescence (0.1 sec) was measured with a Victor II microplate reader (Perkin Elmer) and the resulting data were used to calculate cell viability, normalized to vehicle control.
Cells as described above were treated with exemplary SDC-TRAPs and their viability determined as above as well. The following table illustrates the results.

[1] = Stability in human plasma, 2 h at 37° C. (Example 5); type: in vitro ADME
Method: (§1) SDC-TRAP-0022 and SDC-TRAP-0028 were incubated in human and mouse plasma for 2 h at 37° C. and assayed for integrity at 0.25, 0.5, 1 and 2 h. The values reported below are the remaining of the parent compound at the end of the 2 h incubation period.

[2] = mouse, plasma, 1 h, 10 µM
[3] = Stability in mouse plasma, 2 h at 37° C. (Example 5); type: in vitro ADME
Method: as §1

HER2 [4] = test: HER2 degradation in BT-474 cells (Example 3, Methods 1 and 2); type: cell-based, human
Procedure, shortened: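 BT-474 cells treated 24 h at 37 °C with 10-point 3-fold compound dilutions; HER2 read by in-cell immunofluorescence after paraformaldehyde fixation, signal normalized to DRAQ5 nuclear stain, EC50 from curve fit. Degradation also checked by western blot of cytosolic lysates against tubulin.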

HER2 [5] = test: HER2 degradation assay with BT-474 cell line (Example 12, FACS); type: cell-based, human
H 3211 NSLC cells = test: IC50 of continuous and pulsed exposure (Examples 9 and 10); type: cell-based
[6] = Mouse plasma stability protocol, up to 1 h (Examples 16-18); settings: for % Remaining (1 h): % Remaining of parent after 1 h incubation in mouse plasma at 37° C. (10 μM)
[7] = Artificial membrane permeability assay (PAMPA); settings: same protocol, second table
[8] = test system: human urinary bladder cancer cell line RT-112; test: Cytotoxicity assay (CellTiter-Glo, 72 h), RT-112; type: cell-based; settings: RT-112, 72 h, read-out: Cytotoxicity (IC50, nM) RT-112
Method: (§2) Cytotoxicity of SDC-TRAP molecules was determined in three cancer cell lines. […] 80 μL of CellTiter-Glo was added to each well, followed by room temperature incubation in the dark for 15 minutes. Cell was determined by luminescence. IC50 was calculated using XLfit™ software.

[9] = test system: HCT-116 human colorectal xenografts; test: Mouse xenograft efficacy in HCT-116 colon cancer model; settings: IV, Q7D×3, then drug-free period; SDC-TRAP-0063 200 and 100 mg/kg, SDC-TRAP-0046 94 mg/kg, irinotecan 67 mg/kg, SYN-01 100 mg/kg
Method: The cells were maintained in vitro as a monolayer culture in McCoy's 5a Medium. Fetal bovine serum was then be added to the medium. The final concentration of fetal bovine serum was 10%. Cells were cultured at 37° C. and 5% CO2. The tumor cells were routinely sub-cultured twice weekly by trypsin-EDTA treatment. Cells in an exponential growth phase were harvested and counted for tumor inoculation.
100 18-22 g, 5-7 week old, female BALB/cA nude mice were inoculated with the HCT 116 cells (2.0×10^6, 1:1 with Matrigel) subcutaneously on the back of each animal (0.1 mL/mouse). When the average tumor volume reached about 150-250 mm^3, 60 of the inoculated mice was selected based on tumor growth and randomly grouped into 6 treatment groups (10 mice per group) according to the following table.
The administrations were made with 27-gauge IV needle.
During the treatment period, the implanted tumors were measured by caliper twice per week. The tumors were measured for the maximum width (X) and length (Y) and the tumor volumes (V) were calculated using the formula: V=(X^2Y)/2. The differences in the tumor volume between the control and treatment groups were analyzed for significance using the unpaired two-tailed Student's t-test. P<0.05 was considered to be statistically significant. The animal body weights were also weighed and recorded twice per week.

[10] = test system: human breast cancer cell line BT-474; test: Cytotoxicity assay (CellTiter-Glo, 72 h), BT-474; type: cell-based; settings: BT-474, 72 h, read-out: Cytotoxicity (IC50, nM) BT-474
Method: as §2

[11] = test system: human urinary bladder cancer cell line SW780; test: Cytotoxicity assay (CellTiter-Glo, 72 h), SW780; type: cell-based; settings: SW780, 72 h, read-out: Cytotoxicity (IC50, nM) SW-780
Method: as §2

[12] = Stability in cell culture media (Example 18)
Method: 98 μL of DMEM+10% FBS, +1% P/S, +1.5 g/L sodium bicarbonate cell culture media was mixed with 2 μL of DMSO and aliquotted into 96-well plates at 250 μL per 0, 1, 2, and 18 hour time point.
3×50 μL media samples in 96 were held in 96-well plates at −80° C. until the last time point was extracted. 200 μL of methanol containing IS was added and mixed by vortex at 1500 rpm for 1.5 minutes at room temperature. The samples were centrifuged at 4400 rpm for 10 minutes at 8° C.

in vivo = settings: female, SCID, mouse
[13] = Tissue Distribution Data for SDC-TRAP-0046, Time (h) 0.083
[14] = Tissue Distribution Data for SDC-TRAP-0046, Time (h) 6
[15] = Tissue Distribution Data for SDC-TRAP-0046, Time (h) 12
[16] = Tissue Distribution Data for SDC-TRAP-0046, Time (h) 24
[17] = Tissue Distribution Data for SDC-TRAP-0046, Time (h) 48
[18] = after SDC-TRAP-0046 50 mg/110 mL/kg IV, DRD, 6 h
[19] = after SDC-TRAP-0046 50 mg/110 mL/kg IV, DRD, 12 h
[20] = after SDC-TRAP-0046 50 mg/110 mL/kg IV, DRD, 24 h
[21] = after SDC-TRAP-0046 50 mg/110 mL/kg IV, DRD, 48 h
[22] = Tissue Distribution Data for SDC-TRAP-0171, Time (h) 0.083
[23] = Tissue Distribution Data for SDC-TRAP-0171, Time (h) 1
[24] = Tissue Distribution Data for SDC-TRAP-0171, Time (h) 6
[25] = Tissue Distribution Data for SDC-TRAP-0171, Time (h) 24
[26] = Tissue Distribution Data for SDC-TRAP-0171, Time (h) 48

CCc1c2c(nc3ccc(OCC(=O)N(C)CCOCCn4ccc5cc(-n6c(O)nnc6-c6cc(C(C)C)c(O)cc6O)ccc54)cc13)-c1cc3c(c(=O)n1C2)COC(=O)C3(O)CC (centres unmarked) [SDC-TRAP-0028, 2-((4,11-diethyl-4-hydroxy-3,14-dioxo-3,4,12,14-tetrahydro-1H-pyrano[3′,4′: 6,7]indolizino[1,2-b]quinolin-9-yl)oxy)-N-(2-(2-(5-(3-(2,4-dihydroxy-5-isopropylphenyl)-5-hydroxy-4H-1,2,4-triazol-4-yl)-1H-indol-1-yl)ethoxy)ethyl)-N-methylacetamide]
IC50 (Human H3122 NSCLC cells): 909 nM
% Remaining 2 h (37° C.), HU ([1]; human, plasma, 2 h, 1 μM): 51%
% Remaining 2 h (37° C.), HU ([1]; human, plasma, 2 h, 10 μM): 65%
% Remaining (1 h) [2]: 40.9%
% Remaining (1 h, 37° C.) [2]: 41%
% Remaining 2 h (37° C.), MO ([3]; mouse, plasma, 2 h, 1 μM): 53%
% Remaining 2 h (37° C.), MO ([3]; mouse, plasma, 2 h, 10 μM): 47%

CCc1c2c(nc3ccc(OC(=O)N(C)CCn4ccc5cc(-n6c(O)nnc6-c6cc(C(C)C)c(O)cc6O)ccc54)cc13)-c1cc3c(c(=O)n1C2)COC(=O)C3(O)CC (centres unmarked) [SDC-TRAP-0022, 4,11-diethyl-4-hydroxy-3,14-dioxo-3,4,12,14-tetrahydro-1H-pyrano[3′,4′:6,7]indolizino[1,2-b]quinolin-9-yl (2-(5-(3-(2,4-dihydroxy-5-isopropylphenyl)-5-hydroxy-4H-1,2,4-triazol-4-yl)-1H-indol-1-yl)ethyl)(methyl)carbamate]
IC50 (HER2 [4]): > 5000 nM
IC50 (Human H3122 NSCLC cells): 492 nM
IC50 (HER2 [5]): > 5000 nM
% Remaining 2 h (37° C.), HU ([1]; human plasma, 1 μM): 29%
% Remaining 2 h (37° C.), HU ([1]; human plasma, 10 μM): 30%
IC50 (H 3211 NSLC cells; 1 h, read-out: IC50, 1h-pulse/71h-compound free, 7.5 × 10^3 cells/well, two replicate columns): > 3000 nM
IC50 (H 3211 NSLC cells; read-out: IC50, 1h-pulse/71h-compound free, 7.5 × 10^3 cells/well, two replicate columns): > 3000 nM
IC50 (H 3211 NSLC cells; read-out: IC50, 72h-continuous, 7.5 × 10^3 cells/well, three replicate columns): 193 nM and 823 nM and 460 nM
% Remaining 2 h (37° C.), MO ([3]; mouse plasma, 1 μM): 32%
% Remaining 2 h (37° C.), MO ([3]; mouse plasma, 10 μM): 31%
% Remaining (1 h) [6]: 21.0%
% Remaining (1 h, 37° C.) ([6]; mouse plasma): 21%

CCc1c2c(nc3ccc(OC(=O)N4CCN(Cc5ccc(-n6c(O)nnc6-c6cc(C(C)C)c(O)cc6O)cc5)CC4)cc13)-c1cc3c(c(=O)n1C2)COC(=O)C3(O)CC (centres unmarked) [SDC-TRAP-0046, 4,11-diethyl-4-hydroxy-3,14-dioxo-3,4,12,14-tetrahydro-1H-pyrano[3′,4′:6,7]indolizino[1,2-b]quinolin-9-yl 4-(4-(3-(2,4-dihydroxy-5-isopropylphenyl)-5-hydroxy-4H-1,2,4-triazol-4-yl)benzyl)piperazine-1-carboxylate]
IC50 (HER2 [4]): 246 nM
Mass Retention [7]: 88.1%
IC50 (HER2 [5]): 246 nM
IC50 [8]: 20 nM
Plasma Conc. [13]: 360 µM
Tumor Conc. [13]: 6.94 nmol/g of tissue
Tumor/Plasma Ratio [13]: 0.0193
Plasma Conc. [14]: 5.88 µM
Tumor Conc. [14]: 4.97 nmol/g of tissue
Tumor/Plasma Ratio [14]: 0.844
Plasma Conc. [15]: 2.37 µM
Tumor Conc. [15]: 5.21 nmol/g of tissue
Tumor/Plasma Ratio [15]: 2.20
Plasma Conc. [16]: 0.0542 µM
Tumor Conc. [16]: 2.19 nmol/g of tissue
Tumor/Plasma Ratio [16]: 40.3
Plasma Conc. [17]: BQL
Tumor Conc. [17]: 0.188 nmol/g of tissue
Plasma Conc. [18]: 5.88 µM
Tumor Conc. [18]: 4.97 nmol/g of tissue
Plasma Conc. [19]: 2.37 µM
Tumor Conc. [19]: 5.21 nmol/g of tissue
Plasma Conc. [20]: 0.0542 µM
Tumor Conc. [20]: 2.19 nmol/g of tissue
Plasma Conc. [21]: BQL
Tumor Conc. [21]: 0.188 nmol/g of tissue
Tumor/Plasma Ratio (after SDC-TRAP-0046 IV, 6 h): 0.844
Tumor/Plasma Ratio (after SDC-TRAP-0046 IV, 12 h): 2.20
Tumor/Plasma Ratio (after SDC-TRAP-0046 IV, 24 h): 40.3
Tumor/Plasma Ratio (after SDC-TRAP-0046 IV, […]): 0.0193
antitumor activity in HCT-116 xenografts (FIG. 23) [9]: better activity in inhibiting the growth of HCT-116 cells in vivo than either positive control group
IC50 [10]: 205 nM
IC50 [11]: 489 nM
% Remaining (1 h) [6]: 51.6%
% Remaining (1 h, 37° C.) ([6]; mouse plasma): 52%
Mouse (10 μM) % Remaining 1 h (37° C.)§ ([6]; mouse plasma, data from single parent peak): 50%
Mouse (10 μM) % Remaining 1 h (37° C.)* ([6]; mouse plasma, sum of both peaks): 52%
Media (5 μM) % Remaining 19 h (37° C.) [12]: 37%
Media (5 μM) % Remaining 1 h (37° C.)§ ([12]; data from single parent peak): 62%
Media (5 μM) % Remaining 1 h (37° C.)* ([12]; sum of both peaks): 65%

CC(C)c1cc(-c2nnc(O)n2-c2ccc(CN3CCN(C(=O)Oc4ccc(COC(=O)Nc5cccc6c5CN(C5CCC(=O)NC5=O)C6=O)cc4)CC3)c(F)c2)c(O)cc1O (centres unmarked) [SDC-TRAP-0171, 4-((((2-(2,6-dioxopiperidin-3-yl)-1-oxoisoindolin-4-yl)carbamoyl)oxy)methyl)phenyl-4-(4-(3-(2,4-dihydroxy-5-isopropylphenyl)-5-hydroxy-4H-1,2,4-triazol-4-yl)-2-fluorobenzyl)piperazine-1-carboxylate]
IC50 (HER2 [5]): 199 nM
IC50 [8]: 20 nM
Plasma Conc. [22]: 618 µM
Tumor Conc. [22]: 0.083 nmol/g of tissue
Tumor/Plasma Ratio [22]: 0.0164
Plasma Conc. [23]: 32.2 µM
Tumor Conc. [23]: 1 nmol/g of tissue
Tumor/Plasma Ratio [23]: 0.249
Plasma Conc. [24]: 1.21 µM
Tumor Conc. [24]: 6 nmol/g of tissue
Tumor/Plasma Ratio [24]: 3.10
Plasma Conc. [25]: 0.00162 µM
Tumor Conc. [25]: 24 nmol/g of tissue
Tumor/Plasma Ratio [25]: 407
Plasma Conc. [26]: BQL
Tumor Conc. [26]: 48 nmol/g of tissue
Tumor Conc. (Tissue Distribution Data for SDC-TRAP-0178, Time (h) 0.083): 16.4 nmol/g of tissue
Tumor Conc. (Tissue Distribution Data for SDC-TRAP-0178, Time (h) 1): 12.8 nmol/g of tissue
Tumor Conc. (Tissue Distribution Data for SDC-TRAP-0178, Time (h) 6): 7.17 nmol/g of tissue
Tumor Conc. (Tissue Distribution Data for SDC-TRAP-0178, Time (h) 24): 2.81 nmol/g of tissue
Tumor Conc. (Tissue Distribution Data for SDC-TRAP-0178, Time (h) 48): 1.01 nmol/g of tissue
IC50 [10]: 58 nM
Kp at 1 h (in vivo): 0.0589
Kp at 6 h (in vivo): 1.59
Kp at 24 h (in vivo): 100
Kp at […] (in vivo): 0.0179
concentration at 1 h (in vivo): 217 µM
concentration at 6 h (in vivo): 4.51 µM
concentration at 24 h (in vivo): 0.028 µM
concentration at 48 h (in vivo): 0.241 µM
concentration at […] (in vivo): 918 µM
IC50 [11]: 275 nM
% Remaining (1 h) [6]: 17.7%
